Data from ChEMBL document CHEMBL4043136, “Chiral-pool synthesis of 1,2,4-trisubstituted 1,4-diazepanes as novel σ1 receptor ligands” (Bioorg Med Chem, 2017).
The source made the active and inactive calls. The rule behind the calls is not given here.

Assays:
[1] = molecular target: Sigma non-opioid intracellular receptor 1 (Cavia porcellus, UniProt Q60492); assay: Displacement of [3H]-pentazocine from sigma1 receptor in guinea pig brain membranes after 120 mins by liquid scintillation counting; format: cell membranes, Membrane
Sequence of Sigma non-opioid intracellular receptor 1 (Q60492 whole entry): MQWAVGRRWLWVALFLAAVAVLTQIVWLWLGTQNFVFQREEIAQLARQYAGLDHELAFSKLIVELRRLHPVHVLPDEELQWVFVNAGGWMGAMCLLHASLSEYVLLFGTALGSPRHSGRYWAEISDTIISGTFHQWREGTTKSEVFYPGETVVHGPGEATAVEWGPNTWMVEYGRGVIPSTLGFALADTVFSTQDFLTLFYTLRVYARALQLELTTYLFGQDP

[2] = molecular target: T1, Sigma intracellular receptor 2 (Rattus norvegicus, UniProt Q5U3Y7); assay: Displacement of [3H]-DTG from sigma2 receptor in rat liver membranes after 120 mins by liquid scintillation counting; format: cell membranes, Membrane
T1 sequence (Q5U3Y7 whole entry): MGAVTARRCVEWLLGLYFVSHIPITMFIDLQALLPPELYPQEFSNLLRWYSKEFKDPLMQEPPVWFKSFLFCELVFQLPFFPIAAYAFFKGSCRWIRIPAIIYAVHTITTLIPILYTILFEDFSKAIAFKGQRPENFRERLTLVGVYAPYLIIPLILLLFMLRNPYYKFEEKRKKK

[3] = Displacement of [3H]-(+)-MK 801 from PCP binding site of NMDA receptor in pig brain cortex membranes after 120 mins by liquid scintillation spectrometry; format: cell membranes, Sus scrofa
[4] = molecular target: C-8 sterol isomerase ERG2 (Saccharomyces cerevisiae S288c) (UniProt P32352); assay: Inhibition of yeast sterol-delta8/7-isomerase assessed as accumulation of cholesta-8,14-dien-3beta-ol at 50 uM
Sequence of C-8 sterol isomerase ERG2 (Saccharomyces cerevisiae S288c) (P32352 whole entry, looked up): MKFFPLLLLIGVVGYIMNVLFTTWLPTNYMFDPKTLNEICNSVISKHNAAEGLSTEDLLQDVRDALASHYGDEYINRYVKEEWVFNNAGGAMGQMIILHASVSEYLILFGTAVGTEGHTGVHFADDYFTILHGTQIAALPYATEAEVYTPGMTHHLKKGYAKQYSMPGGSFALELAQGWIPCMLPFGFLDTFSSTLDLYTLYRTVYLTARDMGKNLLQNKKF

[5] = molecular target: C-8 sterol isomerase ERG2 (Saccharomyces cerevisiae S288c) (UniProt P32352); assay: Inhibition of yeast sterol-delta8/7-isomerase assessed as accumulation of cholesta-7-en-3beta-ol at 1 uM
[6] = molecular target: C-8 sterol isomerase ERG2 (Saccharomyces cerevisiae S288c) (UniProt P32352); assay: Inhibition of yeast sterol-delta8/7-isomerase assessed as accumulation of cholesta-8-en-3beta-ol at 1 uM
[7] = molecular target: C-8 sterol isomerase ERG2 (Saccharomyces cerevisiae S288c) (UniProt P32352); assay: Inhibition of yeast sterol-delta8/7-isomerase assessed as accumulation of cholesta-5,7-dien-3beta-ol at 50 uM
[8] = molecular target: C-8 sterol isomerase ERG2 (Saccharomyces cerevisiae S288c) (UniProt P32352); assay: Inhibition of yeast sterol-delta8/7-isomerase assessed as accumulation of cholesta-8-en-3beta-ol at 50 uM
[9] = molecular target: C-8 sterol isomerase ERG2 (Saccharomyces cerevisiae S288c) (UniProt P32352); assay: Inhibition of yeast sterol-delta8/7-isomerase assessed as accumulation of cholesta-7-en-3beta-ol at 50 uM
[10] = molecular target: C-8 sterol isomerase ERG2 (Saccharomyces cerevisiae S288c) (UniProt P32352); assay: Inhibition of yeast sterol-delta8/7-isomerase assessed as accumulation of cholesta-5,7-dien-3beta-ol at 1 uM
[11] = molecular target: C-8 sterol isomerase ERG2 (Saccharomyces cerevisiae S288c) (UniProt P32352); assay: Inhibition of yeast sterol-delta8/7-isomerase assessed as accumulation of cholesta-8,14-dien-3beta-ol at 1 uM
[12] = molecular target: C-8 sterol isomerase ERG2 (Saccharomyces cerevisiae S288c) (UniProt P32352); assay: Inhibition of yeast sterol-delta8/7-isomerase at 50 uM

SMILES | Ki [1] [µM] | Ki [2] [µM] | IC50 [3] [µM] | inhibition [4] | inhibition [5] | inhibition [6] | inhibition [7] | inhibition [8] | inhibition [9] | inhibition [10] | inhibition [11] | inhibition [12]
CCCCN1CCCN(CCCCc2ccccc2)[C@@H](Cc2ccccc2)C1 | 0.0062 | > 1 | > 1 | – | – | – | – | – | – | – | – | –
CCCCN1CCCN(Cc2ccccc2)[C@@H](C)C1 | 0.00061 | 0.276 | > 1 | inactive | Active | Active | Active | inactive | Active | Active | Active | –
c1ccc(C[C@H]2CNCCCN2Cc2ccccc2)cc1 | > 1 | > 10 | > 1 | Active | Active | Active | inactive | inactive | Active | Active | Active | –
CCCCN1CCCN(Cc2ccccc2)[C@H](Cc2ccccc2)C1 | 0.0039 | 0.169 | > 1 | Active | Active | Active | Active | inactive | Active | Active | Active | Active
c1ccc(C[C@@H]2CNCCCN2Cc2ccccc2)cc1 | > 1 | > 1 | > 1 | Active | Active | Active | Active | inactive | Active | Active | Active | –
C[C@H]1CN(CC2CCCCC2)CCCN1Cc1ccc(Cl)cc1 | 0.0049 | 0.051 | > 1 | – | – | – | – | – | – | – | – | –
CCCCN1CCCN(Cc2ccccc2)[C@H](C)C1 | 0.00037 | 0.372 | > 1 | inactive | Active | Active | Active | inactive | Active | inactive | Active | –
CC(C)=CCN1CCCN(Cc2ccccc2)[C@H](Cc2ccccc2)C1 | 0.005 | 0.325 | > 1 | Active | Active | inactive | Active | inactive | Active | Active | inactive | –
CCCCN1CCN(CCc2ccc(Cl)c(Cl)c2)CC1 | 0.00055 | – | – | – | – | – | – | – | – | – | – | –
CCCCN1CCCN(C)[C@H](Cc2ccccc2)C1 | 0.113 | 1 | > 1 | – | – | – | – | – | – | – | – | –
OCC(c1ccccc1)N1CCCN(Cc2ccccc2)[C@@H](Cc2ccccc2)C1 (some centres not stated) | 0.228 | > 1 | > 1 | – | – | – | – | – | – | – | – | –
C[C@@H]1CN(CC2CCCCC2)CCCN1Cc1ccccc1 | 0.00038 | 0.007 | > 1 | inactive | Active | inactive | Active | inactive | Active | Active | inactive | –
C[C@H]1CN(CC2CCCCC2)CCCN1Cc1ccccc1 | 0.00022 | 0.0074 | > 1 | inactive | Active | inactive | Active | inactive | Active | Active | inactive | –
c1ccc(CCCCN2CCCN(Cc3ccccc3)[C@@H](Cc3ccccc3)C2)cc1 | 0.038 | 0.372 | > 1 | – | Active | inactive | – | – | – | Active | Active | –
CN1CCCN(Cc2ccccc2)[C@@H](Cc2ccccc2)C1 | 0.448 | > 1 | > 1 | inactive | Active | inactive | Active | inactive | Active | Active | Active | –
c1ccc(CCN2CCCN(Cc3ccccc3)[C@H](Cc3ccccc3)C2)cc1 | 0.052 | > 1 | > 1 | – | Active | Active | – | – | – | Active | Active | –
